Columns and labels:
[1] = molecular target: T1, photosystem II (PS II) (Spinacia oleracea, UniProt P69560); experiment: Measurement of the PS II activity in thylakoid membranes (DCPIP reduction, Experimental Part 3, Table E1); assay type: biochemical; details: spinach thylakoid membranes
T1 construct: the chloroplasts were osmotically ruptured and the thylakoid membranes were then obtained by centrifugation; from tissue; host or cells: thylakoid membranes from fresh spinach leaves
Summary of the method: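 Spinach leaf thylakoid membranes in 50 mM phosphate pH 6.8, 10 mM KCl, 120 μM DCPIP, under light. Compounds added from 100 μM DMSO solution (2.5% DMSO final). DCPIP reduction read as absorbance decrease at 595 nm over 10 min at 22 °C, reported as percent-inhibition classes.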

[2] = test system: Lolium rigidum; experiment: Pre-emergence herbicidal action (Experimental Part 1, B); assay type: in vivo; details: application rate 1280 g/ha, scored visually after about 3 weeks
Summary of the method: (§1)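 Pre-emergence soil-surface spray, 1280 or 320 g/ha, WP/EC formulation plus 0.5% additive, 600 l/ha water. Greenhouse, ~3 weeks. Visual % activity vs untreated (100% = dead, 0% = like control).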

[3] = test system: Echinochloa crus-galli; experiment: as above; assay type: in vivo; details: application rate 1280 g/ha, scored visually after about 3 weeks
Summary of the method: as §1

[4] = test system: Hordeum murinum; experiment: as above; assay type: in vivo; details: scored visually after about 3 weeks
Summary of the method: as §1

[5] = test system: Abutilon theophrasti; experiment: as above; assay type: in vivo; details: scored visually after about 3 weeks
Summary of the method: as §1

[6] = test system: Matricaria inodora; experiment: as above; assay type: in vivo; details: scored visually after about 3 weeks
Summary of the method: as §1

[7] = test system: Setaria viridis; experiment: as above; assay type: in vivo; details: scored visually after about 3 weeks
Summary of the method: as §1

[8] = test system: Ipomoea purpurea; experiment: as above; assay type: in vivo; details: application rate 1280 g/ha, scored visually after about 3 weeks
Summary of the method: as §1

[9] = test system: Amaranthus retroflexus; experiment: as above; assay type: in vivo; details: scored visually after about 3 weeks
Summary of the method: as §1

[10] = test system: Alopecurus myosuroides; experiment: as above; assay type: in vivo; details: scored visually after about 3 weeks
Summary of the method: as §1

[11] = test system: Viola tricolor; experiment: as above; assay type: in vivo; details: scored visually after about 3 weeks
Summary of the method: as §1

[12] = test system: Veronica persica; experiment: as above; assay type: in vivo; details: application rate 1280 g/ha, scored visually after about 3 weeks
Summary of the method: as §1

[13] = test system: Polygonum convolvulus; experiment: as above; assay type: in vivo; details: scored visually after about 3 weeks
Summary of the method: as §1

[14] = test system: Avena fatua; experiment: as above; assay type: in vivo; details: scored visually after about 3 weeks
Summary of the method: as §1

[15] = test system: Stellaria media; experiment: as above; assay type: in vivo; details: scored visually after about 3 weeks
Summary of the method: as §1

`CCC(=O)OC1C(C)=CC(=O)N1c1cc(C(C)(C)C)on1` (stereo not shown) [I.5-162] was tested, and the “Effect (inhibition of PS II activity)” value [1] was “+++ (90%>inhibition≥70%)”, the “Lolium rigidum, herbicidal activity” value [2] was 90% and the “Echinochloa crus-galli, herbicidal activity” value [3] was 100%. The “Hordeum murinum, herbicidal activity” value ([4]; application rate 1280 g/ha) was 100%, the “Abutilon theophrasti, herbicidal activity” value (from here on “Abutilon theophrasti”) ([5]; application rate 320 g/ha) was 100% and the “Abutilon theophrasti” value ([5]; application rate 1280 g/ha) was 100%. For the same compound, the “Matricaria inodora, herbicidal activity” value ([6]; application rate 320 g/ha) was 100%, the “Matricaria inodora, herbicidal activity” value ([6]; application rate 1280 g/ha) was 100% and the “Setaria viridis, herbicidal activity” value ([7]; application rate 320 g/ha) was 100%. For the same compound, the “Setaria viridis, herbicidal activity” value ([7]; application rate 1280 g/ha) was 100%, the “Ipomoea purpurea, herbicidal activity” value [8] was 90% and the “Amaranthus retroflexus, herbicidal activity” value (“Amaranthus retroflexus” for short) ([9]; application rate 320 g/ha) was 100%. For the same compound, the “Amaranthus retroflexus” value ([9]; application rate 1280 g/ha) was 100%, the “Alopecurus myosuroides, herbicidal activity” value (shortened to “Alopecurus myosuroides”) ([10]; application rate 320 g/ha) was 90% and the “Alopecurus myosuroides” value ([10]; application rate 1280 g/ha) was 90%. For the same compound, the “Viola tricolor, herbicidal activity” value ([11]; application rate 320 g/ha) was 100%, the “Viola tricolor, herbicidal activity” value ([11]; application rate 1280 g/ha) was 100% and the “Veronica persica, herbicidal activity” value [12] was 100%. The “Polygonum convolvulus, herbicidal activity” value (“Polygonum convolvulus” below) ([13]; application rate 320 g/ha) was 100%, the “Polygonum convolvulus” value ([13]; application rate 1280 g/ha) was 100% and the “Avena fatua, herbicidal activity” value ([14]; application rate 320 g/ha) was 90%. For the same compound, the “Avena fatua, herbicidal activity” value ([14]; application rate 1280 g/ha) was 90%, the “Stellaria media, herbicidal activity” value ([15]; application rate 320 g/ha) was 100% and the “Stellaria media, herbicidal activity” value ([15]; application rate 1280 g/ha) was 100%.
In the case of `CC1=CC(=O)N(c2cc(C(C)(C)C)on2)C1O` (stereo not shown) [I.1-162, 5-Hydroxy-4-methyl-1-(5-tert-butyl-1,2-isoxazol-3-yl)-1,5-dihydro-2H-pyrrol-2-one], the “Effect (inhibition of PS II activity)” value [1] is reported as “++++ (inhibition≥90%)”, the “Lolium rigidum, herbicidal activity” value [2] is reported as 100% and the “Echinochloa crus-galli, herbicidal activity” value [3] is reported as 100%. For the same compound, the “Hordeum murinum, herbicidal activity” value ([4]; application rate 320 g/ha) was 90%, the “Hordeum murinum, herbicidal activity” value ([4]; application rate 1280 g/ha) was 100% and the “Abutilon theophrasti” value ([5]; application rate 320 g/ha) was 100%. The “Abutilon theophrasti” value ([5]; application rate 1280 g/ha) was 100%, the “Matricaria inodora, herbicidal activity” value ([6]; application rate 320 g/ha) was 100% and the “Matricaria inodora, herbicidal activity” value ([6]; application rate 1280 g/ha) was 100%. For the same compound, the “Setaria viridis, herbicidal activity” value ([7]; application rate 320 g/ha) was 100%, the “Setaria viridis, herbicidal activity” value ([7]; application rate 1280 g/ha) was 100% and the “Ipomoea purpurea, herbicidal activity” value [8] was 100%. The “Amaranthus retroflexus” value ([9]; application rate 320 g/ha) was 100%, the “Amaranthus retroflexus” value ([9]; application rate 1280 g/ha) was 100% and the “Alopecurus myosuroides” value ([10]; application rate 320 g/ha) was 90%. For the same compound, the “Alopecurus myosuroides” value ([10]; application rate 1280 g/ha) was 100%, the “Viola tricolor, herbicidal activity” value ([11]; application rate 320 g/ha) was 100% and the “Viola tricolor, herbicidal activity” value ([11]; application rate 1280 g/ha) was 100%. The “Veronica persica, herbicidal activity” value [12] was 100%, the “Polygonum convolvulus” value ([13]; application rate 320 g/ha) was 100% and the “Polygonum convolvulus” value ([13]; application rate 1280 g/ha) was 100%. For the same compound, the “Avena fatua, herbicidal activity” value ([14]; application rate 320 g/ha) was 90%, the “Avena fatua, herbicidal activity” value ([14]; application rate 1280 g/ha) was 100% and the “Stellaria media, herbicidal activity” value ([15]; application rate 320 g/ha) was 100%. The “Stellaria media, herbicidal activity” value ([15]; application rate 1280 g/ha) was 100%.
